Patent EP4620312A1, “ENDOTHELIN-1 SECRETION INHIBITOR” (Mitsui DM Sugar Co., Ltd., priority 2022, dated 2024)

System: endothelin-1
Assay: Endothelin-1 concentration in blood (ELISA) before and after a 75-g OGTT during 12-week daily jelly ingestion
Format: in vivo, human
Conditions: for endothelin-1 concentration at 60 minutes and 120 minutes after the 75-g OGTT compared to before the 75-g OGTT: healthy middle to elderly persons
Protocol: Subjects were 54 healthy middle to elderly persons (30 males and 24 females). All subjects were assigned to one of the groups, i.e., an isomaltulose ingestion group (Group I) and a sucrose ingestion group (Group S), in a single blind test before intervention, and the intervention was performed for 12 weeks each.
All subjects ingested jellies having compositions described in Table 1 once a day for 12 weeks continuously. Group I received a jelly containing isomaltulose (Example 1), and group S received a jelly containing sucrose (Comparative Example 1). The jelly was taken every morning before breakfast, and all subjects were instructed not to change their dietary habits during the intervention period from those before the intervention. A 75 g oral glucose tolerance test (75-g OGTT, described in detail below) was performed before the 12-week intervention and at 4 weeks, 8 weeks, and 12 weeks after the start of the intervention, after the lapse of 1 day or more from the ingestion of the jelly and the secretion amount of endothelin-1 was evaluated by the method described below before the 75-g OGTT and at 60 minutes and 120 minutes after the 75-g OGTT.
The 75-g OGTT was performed under the instruction of a doctor using TRELAN- G 75 g (Yoshindo Inc.), which is generally used in medical institutions and research, and the test solution was orally ingested in a general volume (225 mL per dose) within 5 minutes according to the guidelines of the Japan Diabetes Society (Araki E, Goto A, Kondo T, Noda M, Noto H, Origasa H, et al. Japanese Clinical Practice Guideline for Diabetes 2019. J Diabetes Investig 2020; 11: 1020-1076.).
For all subjects, blood was collected from the cubital vein in a fasting state for 12 hours or more in a hygienic environment. Before ingestion of a carbohydrate solution for the 75-g OGTT and at 60 minutes and 120 minutes after the ingestion, a nurse collected blood (15 to 20 mL per collection) using a sterilized disposable blood collection needle under the instruction of a doctor. A sample after blood collection was immediately centrifuged at 4°C and 3000 rpm for 15 minutes, and the concentration of endothelin-1 was measured by ELISA (enzyme-linked immunosorbent assay) using a test kit (Cayman Chemical, Ann Arbor) for measuring the concentration of endothelin-1.
A change in endothelin-1 concentration before and after the start of the intervention of each group was shown as the average value (95% confidence interval). For the comparison of the change in endothelin-1 concentration between the 2 groups before and after the 75-g OGTT, a two-way repeated measures ANOVA was used. The Bonferroni method was performed for comparison of changes in each intervention in post-hoc test. The total area under the curve at 90 minutes (endothelin-1 concentration AUC) was calculated using the trapezoidal rule. For statistical analysis, IBM SPSS Statistics Ver. 25 (manufactured by IBM Corporation) was used. The statistical significance level in this test was set at 5%.

[1] = jelly with 25 g once a day, oral, at 4, 8, and 12 weeks after the start of the intervention

Row | Compound | secretion of endothelin-1 (overall conclusion) (after 75-g OGTT at 4, 8, and 12 weeks after the start of the intervention, Group I versus Group S) | endothelin-1 concentration at 60 minutes and 120 minutes after the 75-g OGTT compared to before the 75-g OGTT [1] | endothelin-1 concentration before the 75-g OGTT and at 60 minutes and 120 minutes after the 75-g OGTT, Group I versus Group S (jelly with 25 g once a day, oral, at 4, 8, and 12 weeks after the start of the intervention, p < 0.01) | endothelin-1 concentration AUC, Group I versus Group S (jelly with 25 g once a day, oral, at 4, 8, and 12 weeks after the start of the intervention, trapezoidal rule, p < 0.01)
1 | 6-O-α-D-glucopyranosyl-D-fructose [isomaltulose] | inhibited the secretion of endothelin-1 | no significant change | significantly lower value | significantly lower value
2 | OC[C@H]1O[C@@](CO)(O[C@H]2O[C@H](CO)[C@@H](O)[C@H](O)[C@H]2O)[C@@H](O)[C@@H]1O [sucrose, reference compound] | – | significantly increased | – | –
